Test results from US20190175528A1, “INHIBITION OF BIOFILM ORGANISMS” (NovaBiotics Limited, priority 2009, published 2019).
Ends that are not written are not given here.

How the values were obtained:
[1] = system: P. aeruginosa ATCC BAA-47; conditions: for MBC at pH5.5, P. aeruginosa ATCCBAA-47 / MBC pH5.5, 320 mM NaCl, P. aeruginosa ATCCBAA-47: ATCC BAA-47, pH 5.5; for MBC following MIC at pH 7, P. aeruginosa ATCCBAA-47: ATCC BAA-47, pH 7
[2] = system: S. aureus DSM 11729 (MRSA); conditions: for MBC at pH5.5, S. aureus 11729 / MBC pH5.5, 320 mM NaCl, S. aureus 11729: DSM 11729, pH 5.5; for MBC following MIC at pH 7, S. aureus DSMZ11729: DSM 11729, pH 7
[3] = system: S. aureus DSM 11729 (MRSA); test: microbe, parasite or virus in culture; type: cell-based, Staphylococcus aureus; conditions: DSM 11729, 24 h; for MIC pH5.5, 320 mM NaCl, S. aureus 11729 / MIC pH5.5, S. aureus 11729: pH 5.5
Method: (§1) The bacterial inoculum was established by the dilution method from actively-growing cultures in Mueller-Hinton broth, standardized with 0.5 McFarland turbidity standard as described in the CLSI method M26-A.
(§2) To determine the prevention of biofilm formation, both the bacterial inoculum and the antimicrobial agents were added simultaneously to the plates. The plates were incubated at 37° C. for 24 h and the optical density was read at 625 nm on a microtitre plate reader (BioTek Powerwave XS, Winooski, USA). The MIC was obtained as the lowest concentration of antimicrobial showing total inhibition of bacterial growth. […]
(§3) FIC=MICA[combination]/MICA[alone]+MICB[combination]/MICB[alone] […]
(§4) In order to assess for the prevention of biofilm formation by both Gram-positive and Gram-negative bacteria, the bacterial inoculum and antimicrobial agents were added simultaneously in the plates. The range of concentrations of antimicrobial agents was 0-500 μg/ml NP108 and 0-320 μg/ml cysteamine against the Gram-negative bacteria P. aeruginosa ATCC BAA-47 and 0-1000 μg/ml NP108 and 0-320 μg/ml cysteamine against the Gram-positive MRSA.

P. aeruginosa DSMZ1299 [4] = type: cell-based, Pseudomonas aeruginosa; conditions: for MIC at pH 7, P. aeruginosa D5MZ1299: DSMZ1299, 24 h
Method: as §1
(§5) To determine the prevention of biofilm formation, both the bacterial inoculum and the antimicrobial agents were added simultaneously to the plates. The plates were incubated at 37° C. for 24 h and the optical density was read at 625 nm on a microtitre plate reader (BioTek Powerwave XS, Winooski, USA). The MIC was obtained as the lowest concentration of antimicrobial showing total inhibition of bacterial growth.

P. aeruginosa DSMZ1128 [5] = type: cell-based, Pseudomonas aeruginosa; conditions: DSMZ1128, 24 h
Method: as §1, §5

S. aureus ATCC25923 [6] = conditions: ATCC25923, pH 7
S. epidermidis ATCC12228 [7] = conditions: ATCC12228, pH 7
S. epidermidis ATCC12228 [8] = type: cell-based, Staphylococcus epidermidis; conditions: ATCC12228, 24 h
Method: as §1, §5

P. aeruginosa DSMZ1128 [9] = conditions: DSMZ1128, pH 7
S. aureus ATCC25923 [10] = type: cell-based, Staphylococcus aureus; conditions: ATCC25923, 24 h
Method: as §1, §5

[11] = system: P. aeruginosa ATCC BAA-47; test: microbe, parasite or virus in culture; type: cell-based, Pseudomonas aeruginosa; conditions: ATCC BAA-47, 24 h; for MIC pH5.5, 320 mM NaCl, P. aeruginosa ATCCBAA-47 / MIC pH5.5, P. aeruginosa ATCCBAA-47: pH 5.5
Method: as §1, §2, §3, §4

P. aeruginosa DSMZ1299 [12] = conditions: DSMZ1299, pH 7

Sequence: HHHFRFFFRFRRR [NP438, HHHFRFFFRFRRR]
- MBC at pH5.5, P. aeruginosa ATCCBAA-47 [1]: >500 μg/ml
- MBC pH5.5, 320 mM NaCl, P. aeruginosa ATCCBAA-47 [1]: >500 μg/ml
- MBC following MIC at pH 7, P. aeruginosa ATCCBAA-47 [1]: >500 μg/ml
- MBC at pH5.5, S. aureus 11729 [2]: >500 μg/ml
- MBC pH5.5, 320 mM NaCl, S. aureus 11729 [2]: >500 μg/ml
- MBC following MIC at pH 7, S. aureus DSMZ11729 [2]: >500 μg/ml
- MIC pH5.5, 320 mM NaCl, S. aureus 11729 [3]: >500 μg/ml
- MIC pH5.5, S. aureus 11729 [3]: >500 μg/ml
- MIC at pH 7, S. aureus DSMZ11729 [3]: >500 μg/ml
- MIC at pH 7, P. aeruginosa D5MZ1299 (P. aeruginosa DSMZ1299 [4]): 500 μg/ml
- MIC at pH 7, P. aeruginosa DSMZ1128 (P. aeruginosa DSMZ1128 [5]): >500 μg/ml
- MBC following MIC at pH 7, S. aureus ATCC25923 (S. aureus ATCC25923 [6]): >500 μg/ml
- MBC following MIC at pH 7, S. epidermidis ATCC12228 (S. epidermidis ATCC12228 [7]): 125 μg/ml
- MIC at pH 7, S. epidermidis ATCC12228 (S. epidermidis ATCC12228 [8]): <7.8 μg/ml
- MBC following MIC at pH 7, P. aeruginosa DSMZ1128 (P. aeruginosa DSMZ1128 [9]): >500 μg/ml
- MIC at pH 7, S. aureus ATCC25923 (S. aureus ATCC25923 [10]): >500 μg/ml
- MIC pH5.5, 320 mM NaCl, P. aeruginosa ATCCBAA-47 [11]: 62.5 μg/ml
- MIC pH5.5, P. aeruginosa ATCCBAA-47 [11]: 125 μg/ml
- MIC at pH 7, P. aeruginosa ATCCBAA-47 [11]: >500 μg/ml
- MBC following MIC at pH 7, P. aeruginosa DSMZ1299 (P. aeruginosa DSMZ1299 [12]): >500 μg/ml

Sequence: HHPRRKPRRPKRRHH [NP441, HHPRRKPRRPKRRHH]
- MBC at pH5.5, P. aeruginosa ATCCBAA-47 [1]: >500 μg/ml
- MBC pH5.5, 320 mM NaCl, P. aeruginosa ATCCBAA-47 [1]: >500 μg/ml
- MBC following MIC at pH 7, P. aeruginosa ATCCBAA-47 [1]: >500 μg/ml
- MBC at pH5.5, S. aureus 11729 [2]: >500 μg/ml
- MBC pH5.5, 320 mM NaCl, S. aureus 11729 [2]: >500 μg/ml
- MBC following MIC at pH 7, S. aureus DSMZ11729 [2]: >500 μg/ml
- MIC pH5.5, 320 mM NaCl, S. aureus 11729 [3]: >500 μg/ml
- MIC pH5.5, S. aureus 11729 [3]: >500 μg/ml
- MIC at pH 7, S. aureus DSMZ11729 [3]: >500 μg/ml
- MIC at pH 7, P. aeruginosa D5MZ1299 (P. aeruginosa DSMZ1299 [4]): >500 μg/ml
- Exp#3, P. aeruginosa DSMZ1299 (quantity not clearly headed) (P. aeruginosa DSMZ1299 [4]; Exp#3): >500 µg/mL
- MIC at pH 7, P. aeruginosa DSMZ1128 (P. aeruginosa DSMZ1128 [5]): >500 μg/ml
- MBC following MIC at pH 7, S. aureus ATCC25923 (S. aureus ATCC25923 [6]): >500 μg/ml
- MBC following MIC at pH 7, S. epidermidis ATCC12228 (S. epidermidis ATCC12228 [7]): >500 μg/ml
- MIC at pH 7, S. epidermidis ATCC12228 (S. epidermidis ATCC12228 [8]): >500 μg/ml
- MBC following MIC at pH 7, P. aeruginosa DSMZ1128 (P. aeruginosa DSMZ1128 [9]): >500 μg/ml
- MIC at pH 7, S. aureus ATCC25923 (S. aureus ATCC25923 [10]): >500 μg/ml
- MIC pH5.5, 320 mM NaCl, P. aeruginosa ATCCBAA-47 [11]: >500 μg/ml
- MIC pH5.5, P. aeruginosa ATCCBAA-47 [11]: >500 μg/ml
- MIC at pH 7, P. aeruginosa ATCCBAA-47 [11]: >500 μg/ml
- MBC following MIC at pH 7, P. aeruginosa DSMZ1299 (P. aeruginosa DSMZ1299 [12]): >500 μg/ml

Sequence: KKFPWRLRLRYGRR [NP445, KKFPWRLRLRYGRR]
- MBC at pH5.5, P. aeruginosa ATCCBAA-47 [1]: >500 μg/ml
- MBC pH5.5, 320 mM NaCl, P. aeruginosa ATCCBAA-47 [1]: >500 μg/ml
- MBC following MIC at pH 7, P. aeruginosa ATCCBAA-47 [1]: 250 μg/ml
- MBC at pH5.5, S. aureus 11729 [2]: >500 μg/ml
- MBC pH5.5, 320 mM NaCl, S. aureus 11729 [2]: >500 μg/ml
- MBC following MIC at pH 7, S. aureus DSMZ11729 [2]: >500 μg/ml
- MIC pH5.5, 320 mM NaCl, S. aureus 11729 [3]: >500 μg/ml
- MIC pH5.5, S. aureus 11729 [3]: >500 μg/ml
- MIC at pH 7, S. aureus DSMZ11729 [3]: 500 μg/ml
- MIC at pH 7, P. aeruginosa D5MZ1299 (P. aeruginosa DSMZ1299 [4]): 31.25 μg/ml
- MIC at pH 7, P. aeruginosa DSMZ1128 (P. aeruginosa DSMZ1128 [5]): 62.5 μg/ml
- MBC following MIC at pH 7, S. aureus ATCC25923 (S. aureus ATCC25923 [6]): >500 μg/ml
- MBC following MIC at pH 7, S. epidermidis ATCC12228 (S. epidermidis ATCC12228 [7]): 62.5 μg/ml
- MIC at pH 7, S. epidermidis ATCC12228 (S. epidermidis ATCC12228 [8]): <7.8 μg/ml
- MBC following MIC at pH 7, P. aeruginosa DSMZ1128 (P. aeruginosa DSMZ1128 [9]): 250 μg/ml
- MIC at pH 7, S. aureus ATCC25923 (S. aureus ATCC25923 [10]): 500 μg/ml
- MIC pH5.5, 320 mM NaCl, P. aeruginosa ATCCBAA-47 [11]: >500 μg/ml
- MIC pH5.5, P. aeruginosa ATCCBAA-47 [11]: >500 μg/ml
- MIC at pH 7, P. aeruginosa ATCCBAA-47 [11]: 31.25 μg/ml
- MBC following MIC at pH 7, P. aeruginosa DSMZ1299 (P. aeruginosa DSMZ1299 [12]): 125 μg/ml

Sequence: RRRFRFFFRFRRR [NP432, RRRFRFFFRFRRR]
- MBC at pH5.5, P. aeruginosa ATCCBAA-47 [1]: 125 μg/ml
- MBC pH5.5, 320 mM NaCl, P. aeruginosa ATCCBAA-47 [1]: >500 μg/ml
- MBC following MIC at pH 7, P. aeruginosa ATCCBAA-47 [1]: 250 μg/ml
- MBC at pH5.5, S. aureus 11729 [2]: >500 μg/ml
- MBC pH5.5, 320 mM NaCl, S. aureus 11729 [2]: >500 μg/ml
- MBC following MIC at pH 7, S. aureus DSMZ11729 [2]: 500 μg/ml
- MIC pH5.5, 320 mM NaCl, S. aureus 11729 [3]: >500 μg/ml
- MIC pH5.5, S. aureus 11729 [3]: >500 μg/ml
- MIC at pH 7, S. aureus DSMZ11729 [3]: 62.5 μg/ml
- MIC at pH 7, P. aeruginosa D5MZ1299 (P. aeruginosa DSMZ1299 [4]): 15.6 μg/ml
- MIC at pH 7, P. aeruginosa DSMZ1128 (P. aeruginosa DSMZ1128 [5]): 62.5 μg/ml
- MBC following MIC at pH 7, S. aureus ATCC25923 (S. aureus ATCC25923 [6]): 250 μg/ml
- MBC following MIC at pH 7, S. epidermidis ATCC12228 (S. epidermidis ATCC12228 [7]): 16 μg/ml
- MIC at pH 7, S. epidermidis ATCC12228 (S. epidermidis ATCC12228 [8]): <7.8 μg/ml
- MBC following MIC at pH 7, P. aeruginosa DSMZ1128 (P. aeruginosa DSMZ1128 [9]): 250 (2) μg/ml
- MIC at pH 7, S. aureus ATCC25923 (S. aureus ATCC25923 [10]): 31.25 μg/ml
- MIC pH5.5, 320 mM NaCl, P. aeruginosa ATCCBAA-47 [11]: 125 μg/ml
- MIC pH5.5, P. aeruginosa ATCCBAA-47 [11]: 125 μg/ml
- MIC at pH 7, P. aeruginosa ATCCBAA-47 [11]: 15.6 μg/ml
- MBC following MIC at pH 7, P. aeruginosa DSMZ1299 (P. aeruginosa DSMZ1299 [12]): 32 (2) μg/ml
